Like-named read-outs stand apart in the source and are kept apart here.
What was measured:
[1] = system: rat hindpaw incision model; assay: Rat hindpaw incision model of post-operative pain, tactile allodynia; assay type: in vivo; conditions: 30 mg/kg IP, 24 hours post-surgery, tested 30, 60, 120, 240 min
Protocol: Protocol. A time course experiment was also performed with (−)-beloxepin in the hindpaw incision model. At 24 hours post-surgery, rats received vehicle or (−)-beloxepin (30 mg/kg IP). Rats were tested for tactile allodynia at 30, 60, 120 and 240 minutes after administration of (−)-beloxepin.
Protocol. Another time course experiment was performed with (+)-beloxepin in the hindpaw incision model. At 24 hours post-surgery, rats received vehicle or (+)-beloxepin (30 mg/kg IP). Rats were tested for tactile allodynia at 30, 60, 120 and 240 minutes after administration of (+)-beloxepin.

L5 SNL rats = assay: L5-Single Nerve Ligation model of neuropathic pain, tactile allodynia (von Frey); assay type: in vivo, rat; conditions: for antiallodynic effect: 8 days post surgery, 30 min post treatment, FIG. 1; for antiallodynic effect over time: tested 30, 60, 120, 240 min
Protocol: Protocol. The antiallodynic activity of (+)- and (−)-beloxepin were tested in vivo using the L5-Single Nerve Ligation model of non-nociceptive neuropathic pain as described in LaBuda & Little, 2005, J. Neurosci. Methods 144:175-181. The test animals were placed in a Plexiglas chamber (10 cm×20 cm×25 cm) and habituated for 15 minutes. The chamber was positioned on top of a mesh screen so that von Frey monofilaments could be presented to the plantar surface of both hindpaws. Measurement of tactile sensitivity for each hind paw were obtained using the up/down method (Dixon, 1980, Annu. Rev. Pharmacol. Toxicol. 20:441-462) with seven Frey monofilaments (0.4, 1, 2, 4, 6, 8 and 15 grams). Each trial started with a von Frey force of 2 grams delivered to the right hind paw for approximately 1-2 seconds and then the left hind paw. If there was no withdrawal response, the next higher force was delivered. If there was a response, the next lower force was delivered. This procedure was performed until no response was made at the highest force (15 grams) or until four stimuli were administered following the initial response. The 50% paw withdrawal threshold for each paw was calculated using the following formula: [Xth]log=[vFr]log+ky, where [vFr] is the force of the last von Frey used, k=0.2249 which is the average interval (in log units) between the von Frey monofilaments, and y is a value that depends upon the pattern of withdrawal responses (Dixon, 1980, supra). […] Testing for tactile sensitivity was performed twice and the mean 50% withdrawal value assigned as the tactile sensitivity for the right and left paws for each animal.
Results. The antiallodynic effects produced by (+)-beloxepin (30 mg/kg IP) and (−)-beloxepin (30 mg·kg IP) in L5 SNL rats 8 days post surgery are illustrated in FIG. 1. In this experiment, at 8 days post surgery, rats were treated with vehicle or beloxepin enantiomers (30 mg/kg IP) and tested for tactile allodynia at 30 min post treatment. […] No side effects were observed following treatment with either enantiomer.
The antiallodynic effects produced by (+)-beloxepin (30 mg/kg IP) in L5 SNL rats 14 days post surgery are illustrated in FIG. 2. In this experiment, at 14 days post surgery, rats were treated with vehicle or (+)-beloxepin and tested for tactile allodynia at 30, 60, 120 and 240 min post treatment. Vehicle treated rats were tested at 30 min post treatment.
Protocol. A time course experiment was performed with (−)-beloxepin (60 mg/kg PO) in L5 SNL rats at 7 days post-surgery. Rats were tested at 30, 60, 120, and 240 minutes post-drug.
Protocol. A time course experiment was also performed with (+)-beloxepin (60 mg/kg PO) in L5 SNL rats at 14 days post-surgery. Rats were tested at 30, 60, 120, and 240 minutes post-drug.

[2] = system: rat 50° C. hot plate model; assay: Rat 50° C. hot plate assay; assay type: in vivo; conditions: for antinociceptive activity: 30 mg/kg IP, 30, 60 and 120 minutes after treatment
Protocol: Protocol. Rats were treated with vehicle, 30 mg/kg IP of (−)-beloxepin, or 30 mg/kg IP of (+)-beloxepin and then were placed on a hot plate (50° C.) 30, 60, or 120 minutes after administration of the vehicle or beloxepin enantiomer. Rats treated with 3 mg/kg SC of morphine and tested 30 min post-treatment were used as a positive control in these experiments.

NET = target: T1, NET (Rattus norvegicus, UniProt Q63380); assay: NE uptake inhibition assay, rat hypothalamus synaptosomes; assay type: biochemical; conditions: read-out: NET IC50 (norepinephrine reuptake inhibition)
T1 construct: from tissue; host or cells: rat hypothalamus synaptosomes

[3] = system: noradrenergic, histaminergic and cholinergic receptors; conditions: Sperling & Demling 1997; cited from earlier work
depression = conditions: based on HAMD score reduction; cited from earlier work
[4] = cited from earlier work
[5] = system: animal models of depression; conditions: cited from earlier work
REM sleep = conditions: 25-400 mg, cited from earlier work
5HT2C receptor = target: T2, 5HT2C receptor (Homo sapiens, UniProt P28335); conditions: Claghorn & Lesem 1996; cited from earlier work
T2 sequence (P28335 33-458): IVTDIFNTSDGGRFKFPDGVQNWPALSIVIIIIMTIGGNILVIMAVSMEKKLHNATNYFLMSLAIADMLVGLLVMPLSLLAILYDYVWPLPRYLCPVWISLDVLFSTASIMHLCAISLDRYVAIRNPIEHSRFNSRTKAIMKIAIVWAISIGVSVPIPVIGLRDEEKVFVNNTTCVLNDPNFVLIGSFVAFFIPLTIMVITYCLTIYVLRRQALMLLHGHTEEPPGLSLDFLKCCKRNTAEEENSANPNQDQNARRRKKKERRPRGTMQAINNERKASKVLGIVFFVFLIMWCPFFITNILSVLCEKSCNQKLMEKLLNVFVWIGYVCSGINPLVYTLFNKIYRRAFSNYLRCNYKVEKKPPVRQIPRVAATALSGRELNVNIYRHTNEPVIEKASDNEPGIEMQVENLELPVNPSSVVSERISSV

major depression = conditions: subsequent clinical trials; Paanakker et al. 1998; cited from earlier work

T1 sequence (Q63380 1-617): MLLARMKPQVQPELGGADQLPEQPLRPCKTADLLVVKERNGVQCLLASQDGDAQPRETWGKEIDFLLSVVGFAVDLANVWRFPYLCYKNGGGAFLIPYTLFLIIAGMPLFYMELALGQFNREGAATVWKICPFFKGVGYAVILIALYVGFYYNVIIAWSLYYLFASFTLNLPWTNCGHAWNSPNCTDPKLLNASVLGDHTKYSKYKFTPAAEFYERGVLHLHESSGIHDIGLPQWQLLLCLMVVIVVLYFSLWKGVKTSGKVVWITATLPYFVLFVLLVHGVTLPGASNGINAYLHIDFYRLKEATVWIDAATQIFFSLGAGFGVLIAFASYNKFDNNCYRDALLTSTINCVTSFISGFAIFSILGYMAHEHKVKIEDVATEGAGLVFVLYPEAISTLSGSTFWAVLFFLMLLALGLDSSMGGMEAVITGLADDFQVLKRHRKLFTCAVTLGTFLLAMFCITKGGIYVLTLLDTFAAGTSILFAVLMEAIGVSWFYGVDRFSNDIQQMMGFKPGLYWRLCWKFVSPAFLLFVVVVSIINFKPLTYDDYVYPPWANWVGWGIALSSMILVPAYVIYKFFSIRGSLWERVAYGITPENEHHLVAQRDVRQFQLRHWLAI

Cc1cccc2c1Oc1ccccc1C1(O)CCN(C)CC21 (single isomer, unassigned; (+)) [(+)-beloxepin]
antiallodynic effect over time [1]: significant antiallodynic effect at the 30 and 60 minute time points | antiallodynic effect (L5 SNL rats; 30 mg/kg IP): not statistically significant, (+)-beloxepin produced an antiallodynic effect that was comparable to that observed with (−)-beloxepin | maximal efficacy, % of the threshold of vehicle-treated rats (L5 SNL rats; 30 mg/kg IP, 14 days post surgery): 423% | antiallodynic effect over time (L5 SNL rats; 30 mg/kg IP, 14 days post surgery, FIG. 2): significant antiallodynic effects at the 30 and 60 min time points | antiallodynic effect over time (L5 SNL rats; 60 mg/kg PO, 14 days post-surgery, FIG. 4): did not produce significant antiallodynic effects at any time point | antinociception, % MPE values ([2]; 30 mg/kg IP, 30, 60, 120 min, FIG. 8): 10-17% | antinociceptive activity [2]: no antinociception was observed

Cc1cccc2c1Oc1ccccc1C1(O)CCN(C)CC21 (single isomer, unassigned; (-)) [(−)-beloxepin]
antiallodynic effect over time [1]: significant antiallodynic effect at the 30 and 120 minute time point | antiallodynic effect (L5 SNL rats; 30 mg/kg IP): significant antiallodynia | antiallodynic effect over time (L5 SNL rats; 60 mg/kg PO, 7 days post-surgery, FIG. 3): significant antiallodynic effects at the 60 and 120 minute time points | antinociceptive activity [2]: robust antinociceptive activity at 30, 60, and 120 minutes after treatment | IC50 (NET; [3H]norepinephrine, rat hypothalamus synaptosomes, 20 min 37° C.): 0.12 µM

Cc1cccc2c1Oc1ccccc1C1(O)CCN(C)CC21 (racemic) [(±)-beloxepin, cis-1,2,3,4,4a,13b-hexahydro-2,10-dimethyldiben-[2,3:6,7]oxepino[4,5c]pyridine-4-a-ol]]
affinity for noradrenergic, histaminergic and cholinergic receptors [3]: no or very weak affinity | fraction of patients with moderate to good response (depression): ⅔ | adverse effects ([4]; healthy volunteers, up to 800 mg/day): No important adverse effects were observed | tmax ([4]; steady-state, doses of 50 to 800 mg, healthy normal subjects): 1.17 h | antidepressant properties ([5]; acquired immobility, reserpine-induced hypothermia, conditioned avoidance): exhibit antidepressant properties | sedation, motor impairment or other side effects ([5]; preclinical depression tests): did not cause sedation, motor impairment or other untoward side effects | total duration of nocturnal REM sleep (REM sleep; EEG): decreased | REM latency (REM sleep; acutely and sub-chronically, EEG): dose-dependently prolonged REM latency | sedation or other side effects (REM sleep; human volunteers): No sedation or other side effects were observed | IC50 (NET): 0.13 µM | affinity for the 5HT2C receptor (5HT2C receptor): modest affinity | efficacy for the treatment of major depression (major depression): insufficient efficacy
